# Values joined by “and” are separate entries in the source; they are usually repeats but may differ in a detail not shown here. Identical values can stand only once.
# System: 485176-168-R4-J1-PDC complex spheroid growth
# Experiment: Anticancer human tumor 485176-168-R4-J1-PDC patient-derived pancreatic adenocarcinoma cell line growth inhibition [RAS]
# Details: for viability, T/C: stronger effect = lower value
# How it was run: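 Agents were tested in combination matrices in half-log decrements from a top concentration at or near clinical Cmax (10 microM if undetermined). Targets were multi-cell spheroids of tumour lines plus HUVEC and MSC stromal cells.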
# 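Note: spheroids exposed to compounds for seven days before readout.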
# 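Throughout, for viability, T/C: luminescence viability expressed relative to DMSO vehicle wells set as 100%.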
structure (smiles),measurement,setting,value
O=C(c1ccc(F)c(F)c1Nc1ccc(I)cc1F)N1CC(O)([C@@H]2CCCCN2)C1 + C=CC(=O)N1CCN(c2nc(OCC3CCCN3C)nc3c(F)c(-c4nc(N)cc(C)c4C(F)(F)F)c(Cl)cc23)C(C)C1,IC50,"curve of first compound, second compound 0.00316 µM",0.23 µM
same,IC50,"curve of first compound, second compound 0.01 µM",0.212 µM
same,IC50,"curve of first compound, second compound 0.0316 µM",0.195 µM
same,IC50,"curve of first compound, second compound 0.1 µM",0.327 µM
same,IC50,"curve of first compound, second compound 0.316 µM",0.148 µM
same,IC50,"curve of first compound, second compound 1 µM",0.324 µM
same,"viability, T/C","second compound 0.00316 µM, first compound 0.00316 µM",86%
same,"viability, T/C","second compound 0.00316 µM, first compound 0.01 µM",90.4%
same,"viability, T/C","second compound 0.00316 µM, first compound 0.0316 µM",72%
same,"viability, T/C","second compound 0.00316 µM, first compound 0.1 µM",61.1%
same,"viability, T/C","second compound 0.00316 µM, first compound 0.316 µM",47.1%
same,"viability, T/C","second compound 0.00316 µM, first compound 1 µM",33%
same,"viability, T/C","second compound 0.01 µM, first compound 0.00316 µM",105%
same,"viability, T/C","second compound 0.01 µM, first compound 0.01 µM",80.9%
same,"viability, T/C","second compound 0.01 µM, first compound 0.0316 µM",70.3%
same,"viability, T/C","second compound 0.01 µM, first compound 0.1 µM",61.9%
same,"viability, T/C","second compound 0.01 µM, first compound 0.316 µM",48.5%
same,"viability, T/C","second compound 0.01 µM, first compound 1 µM",30.9%
same,"viability, T/C","second compound 0.0316 µM, first compound 0.00316 µM",96.1%
same,"viability, T/C","second compound 0.0316 µM, first compound 0.01 µM",90.7%
same,"viability, T/C","second compound 0.0316 µM, first compound 0.0316 µM",77%
same,"viability, T/C","second compound 0.0316 µM, first compound 0.1 µM",55.5%
same,"viability, T/C","second compound 0.0316 µM, first compound 0.316 µM",47.4%
same,"viability, T/C","second compound 0.0316 µM, first compound 1 µM",35.9%
same,"viability, T/C","second compound 0.1 µM, first compound 0.00316 µM",96.4%
same,"viability, T/C","second compound 0.1 µM, first compound 0.01 µM",82.5%
same,"viability, T/C","second compound 0.1 µM, first compound 0.0316 µM",73.5%
same,"viability, T/C","second compound 0.1 µM, first compound 0.1 µM",69.2%
same,"viability, T/C","second compound 0.1 µM, first compound 0.316 µM",49.4%
same,"viability, T/C","second compound 0.1 µM, first compound 1 µM",34.4%
same,"viability, T/C","second compound 0.316 µM, first compound 0.00316 µM",90.6%
same,"viability, T/C","second compound 0.316 µM, first compound 0.01 µM",86.2%
same,"viability, T/C","second compound 0.316 µM, first compound 0.0316 µM",84.1%
same,"viability, T/C","second compound 0.316 µM, first compound 0.1 µM",52.6%
same,"viability, T/C","second compound 0.316 µM, first compound 0.316 µM",49.2%
same,"viability, T/C","second compound 0.316 µM, first compound 1 µM",37.1%
same,"viability, T/C","second compound 1 µM, first compound 0.00316 µM",86.1%
same,"viability, T/C","second compound 1 µM, first compound 0.01 µM",72.9%
same,"viability, T/C","second compound 1 µM, first compound 0.0316 µM",58%
same,"viability, T/C","second compound 1 µM, first compound 0.1 µM",70.8%
same,"viability, T/C","second compound 1 µM, first compound 0.316 µM",50.8%
same,"viability, T/C","second compound 1 µM, first compound 1 µM",36.6%
CC(=O)OC12COC1CC(O)C1(C)C(=O)C(O)C3=C(C)C(OC(=O)C(O)C(NC(=O)OC(C)(C)C)c4ccccc4)CC(O)(C(OC(=O)c4ccccc4)C21)C3(C)C (stereo not drawn),"viability, T/C",compound 0.0316 µM,15.6% [middle of 4 runs]
same,"viability, T/C",compound 0.1 µM,14.3% [middle of 4 runs]
same,"viability, T/C",compound 0.316 µM,12.7% [middle of 4 runs]
same,"viability, T/C",compound 1 µM,13.4% and 12.8% and 14.2% (2×)
same,"viability, T/C",compound 3.16 µM,17.2% [middle of 4 runs]
same,"viability, T/C",compound 10 µM,17.7% and 22.4% (2×) and 25.1%
same,IC50,curve of compound,< 0.0316 µM
Cc1nc(N2CCC3(CC2)COC(C)C3N)c(CO)nc1Sc1ccnc(N)c1Cl (stereo not drawn),"viability, T/C",compound 0.0316 µM,102% [middle of 4 runs]
same,"viability, T/C",compound 0.1 µM,86.5% [middle of 4 runs]
same,"viability, T/C",compound 0.316 µM,82.8% [middle of 4 runs]
same,"viability, T/C",compound 1 µM,74.3% [middle of 4 runs]
same,"viability, T/C",compound 3.16 µM,84.5% [middle of 4 runs]
same,"viability, T/C",compound 10 µM,63.4% (2×) and 81.9% and 74.9%
same,IC50,curve of compound,> 10 µM
CC(Nc1ccc2c(c1)OCCn1cc(N3C(=O)OCC3C(F)F)nc1-2)C(N)=O (stereo not drawn) + CCn1c(-c2cc(N3CCN(C)CC3)cnc2C(C)OC)c2c3cc(ccc31)-c1csc(n1)CC(NC(=O)C1CC1C)C(=O)N1CCCC(N1)C(=O)OCC(C)(C)C2,IC50,"curve of first compound, second compound 0.000949 µM",> 10 µM
same,IC50,"curve of first compound, second compound 0.003 µM",> 10 µM
same,IC50,"curve of first compound, second compound 0.00949 µM",7.94 µM
same,IC50,"curve of first compound, second compound 0.03 µM",7.65 µM
same,IC50,"curve of first compound, second compound 0.0949 µM",2.11 µM
same,IC50,"curve of first compound, second compound 0.3 µM",> 10 µM
same,"viability, T/C","second compound 0.000949 µM, first compound 0.0316 µM",100%
same,"viability, T/C","second compound 0.000949 µM, first compound 0.1 µM",91.9%
same,"viability, T/C","second compound 0.000949 µM, first compound 0.316 µM",71.8%
same,"viability, T/C","second compound 0.000949 µM, first compound 1 µM",79.8%
same,"viability, T/C","second compound 0.000949 µM, first compound 3.16 µM",70.5%
same,"viability, T/C","second compound 0.000949 µM, first compound 10 µM",51.1%
same,"viability, T/C","second compound 0.003 µM, first compound 0.0316 µM",92.8%
same,"viability, T/C","second compound 0.003 µM, first compound 0.1 µM",74.8%
same,"viability, T/C","second compound 0.003 µM, first compound 0.316 µM",73.7%
same,"viability, T/C","second compound 0.003 µM, first compound 1 µM",72%
same,"viability, T/C","second compound 0.003 µM, first compound 3.16 µM",61.3%
same,"viability, T/C","second compound 0.003 µM, first compound 10 µM",47%
same,"viability, T/C","second compound 0.00949 µM, first compound 0.0316 µM",81.5%
same,"viability, T/C","second compound 0.00949 µM, first compound 0.1 µM",72.7%
same,"viability, T/C","second compound 0.00949 µM, first compound 0.316 µM",76.9%
same,"viability, T/C","second compound 0.00949 µM, first compound 1 µM",76.1%
same,"viability, T/C","second compound 0.00949 µM, first compound 3.16 µM",62.2%
same,"viability, T/C","second compound 0.00949 µM, first compound 10 µM",46.7%
same,"viability, T/C","second compound 0.03 µM, first compound 0.0316 µM",75.9%
same,"viability, T/C","second compound 0.03 µM, first compound 0.1 µM",78.5%
same,"viability, T/C","second compound 0.03 µM, first compound 0.316 µM",69.3%
same,"viability, T/C","second compound 0.03 µM, first compound 1 µM",60.5%
same,"viability, T/C","second compound 0.03 µM, first compound 3.16 µM",58%
same,"viability, T/C","second compound 0.03 µM, first compound 10 µM",48.1%
same,"viability, T/C","second compound 0.0949 µM, first compound 0.0316 µM",66.9%
same,"viability, T/C","second compound 0.0949 µM, first compound 0.1 µM",83.7%
same,"viability, T/C","second compound 0.0949 µM, first compound 0.316 µM",77.1%
same,"viability, T/C","second compound 0.0949 µM, first compound 1 µM",51.9%
same,"viability, T/C","second compound 0.0949 µM, first compound 3.16 µM",56.8%
same,"viability, T/C","second compound 0.0949 µM, first compound 10 µM",41.2%
same,"viability, T/C","second compound 0.3 µM, first compound 0.0316 µM",75.6%
same,"viability, T/C","second compound 0.3 µM, first compound 0.1 µM",72.3%
same,"viability, T/C","second compound 0.3 µM, first compound 0.316 µM",57.6%
same,"viability, T/C","second compound 0.3 µM, first compound 1 µM",57.7%
same,"viability, T/C","second compound 0.3 µM, first compound 3.16 µM",51.3%
same,"viability, T/C","second compound 0.3 µM, first compound 10 µM",51.2%
